Assay results from patent US8389698B2, “Tanaproget derivatives, metabolites, and uses thereof” (Wyeth LLC, priority 2004, dated 2013).

Legend:
[1] = test system: alkaline phosphatase activity in T47D cells; assay: Alkaline phosphatase activity in T47D cells; type: cell-based
Protocol: Tanaproget glucuronides are a prodrug of tanaproget, a first-in-class non-steroidal progesterone receptor agonist for use primarily in contraception. The effect of tanaproget glucuronides on alkaline phosphase activity in T47D cells is analyzed as follows.
Culture medium: DMEM:F12 (1:1) (GIBCO, BRL) supplemented with 5% (v/v) charcoal stripped fetal bovine serum (not heat-inactivated), 100 U/mL penicillin, 100 μg/mL streptomycin, and 2 mM GlutaMax (GIBCO, BRL).
Alkaline phosphatase assay buffer: I. 0.1M Tris-HCl, pH 9.8, containing 0.2% Triton X-100, 0.1M Tris-HCl, pH 9.8, containing 4 mM p-nitrophenyl phosphate (Sigma).
Frozen T47D cells are thawed in a 37° C. water bath and diluted to 280,000 cells/mL in culture medium. To each well in a 96-well plate (Falcon, Becton Dickinson Labware), 180 μl of diluted cell suspension is added.
Twenty μl of reference or test compounds diluted in the culture medium is then added to each well. The cells are incubated at 37° C. in a 5% CO2 humidified atmosphere for 24 hours. For high throughput screening, one concentration of each compound will be tested at 0.3 μg/mL. […]
For reference and test compounds, a dose response curve is generated for dose vs. the rate of enzyme reaction (slope). […] EC50 values are calculated from the retransformed values. […]

[2] = Drug related components in plasma; type: in vivo; settings: rat, dog, and human plasma
Protocol: (§1) The glucuronide of tanaproget was prepared in male rat liver microsomes, and the structure was identified as a S-glucuronide conjugate by liquid chromatography (LC)/mass spectrometry (MS) and nuclear magnetic resonance (NMR) spectroscopy. […] This S-glucuronide can also be synthetically prepared simultaneously with a N-glucuronide. The two synthetic glucuronides could be separated by HPLC and their structures were all characterized by LC/MS and NMR spectroscopy. In the following scheme, the NSP-989 terminology is used in the place of tanaproget.

[3] = Metabolite identification in liver microsomes; type: in vitro ADME; settings: male and female rat, dog, and human liver microsomes
Protocol: as §1
Incubations (100 mL) were performed with tanaproget (40 μM), UDPGA (5 mM), magnesium chloride (10 mM), and male rat liver microsomes (1.5 mg/mL), in 0.1 M potassium phosphate buffer, pH 7.4 at 37° C. The samples were pre-incubated for 1 minute at 37° C., and the reactions were initiated by the addition of UDPGA. The sample was cooled using an ice bath to stop the reaction after 3 hours. Unreacted tanaproget was removed from the samples by two extractions with diethyl ether (200 mL×2).

[4] = test system: Glusulase (glucuronidase); assay: Enzymatic hydrolysis of tanaproget glucuronide conjugate in pooled urine by Glusulase; type: in vitro ADME
Protocol: In order to confirm that that the tanaproget glucuronide derivative is a prodrug when delivered to patients, the ability of the glucuronide conjugate to be enzymatically cleaved by a glucuronidase which is native to the gastrointestinal tract in humans was used in the following assay.
Pooled urine samples (4-8 hr) from healthy women were hydrolyzed by Glusulase®. Aliquots (1 mL) of pooled urine were adjusted to pH 5 with 0.5 mL of 0.6 M sodium acetate buffer. The diluted urine was mixed with Glusulase® (9,000 units/mL, 100 μL) and incubated at 37° C. for 1 hr with gentle shaking. The reaction was stopped by the addition of 2 mL of acetone and the precipitate was removed by centrifugation. The supernatant was dried under nitrogen in a TurboVap™ (Caliper Life Sciences, Hopkinton, Mass.).

EC50 ([1]; Homo sapiens, 24 hours treatment): 0.1 nM
abundance as drug related component in plasma [2]: major drug related component
abundance as metabolite of tanaproget in liver microsomes [3]: major metabolite
Compound: Cn1c(C#N)ccc1-c1ccc2c(c1)C(C)(C)OC(SC1OC(C(=O)O)C(O)C(O)C1O)=N2 [Tanaproget S-glucuronide, S-(β)-D-glucuronide of tanaproget]
efficacy as compared to progesterone ([1]; alkaline phosphatase, relative to progesterone): 60%
conversion of glucuronide into tanaproget by Glusulase ([4]; pooled urine (4-8 hr) from healthy women, pH 5, Glusulase 9,000 units/mL, 37° C., 1 hr, HPLC and LC/MS): confirmed the conversion of glucuronide into parent drug tanaproget
conversion of glucuronide into tanaproget in control incubations ([4]; same conditions without Glusulase, or with Glusulase and 10 mM saccharolactone (β-glucuronidase inhibitor)): no conversion of glucuronide conjugate into tanaproget was observed
